Each block holds one molecule with its values, some of them ahead of it.
Experiments:
Format in all cases: functional, cell-based
[1] = biological target: T1, ATP-dependent translocase ABCB1 (Homo sapiens, UniProt P08183); assay: TP_TRANSPORTER: transepithelial transport (basal to apical) of Ciprofloxacin at 2uM in LLC-GA5-COL150 cells; settings: pig, llc-ga5-col150, 2 µM
[2] = biological target: T1, ATP-dependent translocase ABCB1; assay: TP_TRANSPORTER: transepithelial transport (basal to apical) of Digoxin at a concentration of 58.8nM in LLC-GA5-COL150 cells; settings: pig
[3] = biological target: T1, ATP-dependent translocase ABCB1; assay: TP_TRANSPORTER: transepithelial transport (basal to apical) of Grepafloxacin at a concentration of 5uM in LLC-GA5-COL150 cells; settings: pig, llc-ga5-col150, 5 µM
[4] = biological target: T1, ATP-dependent translocase ABCB1; assay: TP_TRANSPORTER: transepithelial transport (basal to apical) of Levofloxacin at a concentration of 5uM in LLC-GA5-COL150 cells; settings: pig, llc-ga5-col150, 5 µM

T1 sequence (P08183 whole entry): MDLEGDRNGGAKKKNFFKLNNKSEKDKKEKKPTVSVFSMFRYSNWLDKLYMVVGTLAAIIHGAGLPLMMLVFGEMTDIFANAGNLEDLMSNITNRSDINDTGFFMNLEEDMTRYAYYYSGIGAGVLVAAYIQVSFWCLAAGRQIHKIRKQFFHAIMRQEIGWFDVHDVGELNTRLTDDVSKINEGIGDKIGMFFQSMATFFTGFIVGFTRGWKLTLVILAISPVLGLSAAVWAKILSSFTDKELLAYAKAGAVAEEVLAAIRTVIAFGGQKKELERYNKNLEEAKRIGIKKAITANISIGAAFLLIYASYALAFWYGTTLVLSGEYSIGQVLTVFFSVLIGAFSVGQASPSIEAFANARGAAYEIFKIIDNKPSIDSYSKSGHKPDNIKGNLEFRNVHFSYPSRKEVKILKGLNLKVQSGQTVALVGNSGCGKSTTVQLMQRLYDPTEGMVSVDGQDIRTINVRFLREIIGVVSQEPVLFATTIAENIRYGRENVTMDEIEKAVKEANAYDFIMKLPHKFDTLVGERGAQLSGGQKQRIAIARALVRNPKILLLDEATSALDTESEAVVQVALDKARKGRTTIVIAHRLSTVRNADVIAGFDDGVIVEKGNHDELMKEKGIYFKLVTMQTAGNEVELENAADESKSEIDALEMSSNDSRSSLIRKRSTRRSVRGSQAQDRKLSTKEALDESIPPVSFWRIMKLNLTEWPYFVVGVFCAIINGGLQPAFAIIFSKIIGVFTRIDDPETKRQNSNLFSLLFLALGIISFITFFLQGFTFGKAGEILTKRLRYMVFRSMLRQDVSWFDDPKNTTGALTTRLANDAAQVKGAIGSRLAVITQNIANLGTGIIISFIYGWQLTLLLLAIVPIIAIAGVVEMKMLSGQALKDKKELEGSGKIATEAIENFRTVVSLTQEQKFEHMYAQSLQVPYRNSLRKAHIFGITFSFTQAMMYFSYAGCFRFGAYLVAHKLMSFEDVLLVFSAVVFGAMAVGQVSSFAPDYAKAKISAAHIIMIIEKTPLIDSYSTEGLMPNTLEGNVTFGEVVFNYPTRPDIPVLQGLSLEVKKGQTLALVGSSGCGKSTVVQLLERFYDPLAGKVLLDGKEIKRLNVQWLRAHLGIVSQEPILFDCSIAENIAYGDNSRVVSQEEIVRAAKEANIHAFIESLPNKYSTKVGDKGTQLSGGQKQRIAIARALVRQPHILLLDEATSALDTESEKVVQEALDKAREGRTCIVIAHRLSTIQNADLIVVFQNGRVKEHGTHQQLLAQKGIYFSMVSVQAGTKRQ

Activity [1]: is not a substrate [-]
Structure (SMILES): O=C(O)c1cn(C2CC2)c2cc(N3CCNCC3)c(F)cc2c1=O [CIPROFLOXACIN]

Activity [2]: substrate [+]
Structure (SMILES): C[C@H]1O[C@@H](O[C@H]2[C@@H](O)C[C@H](O[C@H]3[C@@H](O)C[C@H](O[C@H]4CC[C@@]5(C)[C@H](CC[C@@H]6[C@@H]5C[C@@H](O)[C@]5(C)[C@@H](C7=CC(=O)OC7)CC[C@]65O)C4)O[C@@H]3C)O[C@@H]2C)C[C@H](O)[C@@H]1O [DIGOXIN]

Activity [3]: substrate [+]
Structure (SMILES): Cc1c(F)c(N2CCNC(C)C2)cc2c1c(=O)c(C(=O)O)cn2C1CC1 (centres undefined) [GREPAFLOXACIN]

Activity [4]: substrate [+]
Structure (SMILES): C[C@H]1COc2c(N3CCN(C)CC3)c(F)cc3c(=O)c(C(=O)O)cn1c23.C[C@H]1COc2c(N3CCN(C)CC3)c(F)cc3c(=O)c(C(=O)O)cn1c23.O [LEVOFLOXACIN]
